pEC50: −log10 of the molar value.
Tested on: Hep3B cells
Assay: Epo protein produced by Hep3B cell line, ELISA / AlphaLISA
Assay type: cell-based
Settings: Homo sapiens, 48 hours incubation, 100 micromolar = maximum concentration tested
Protocol: Hep3B cells obtained from the American Type Culture Collection (ATCC) are seeded at 2×10̂4 cells/well in Dulbecco's Modified Eagle Medium (DMEM)+10% FBS in 96-well plates. Cells are incubated at 37deg C./5% CO2/90% humidity (standard cell culture incubation conditions). After overnight adherence, medium is removed and replaced with DMEM without serum containing test compound or DMSO negative control. Following 48 hours incubation, cell culture medium is collected and assayed by ELISA to quantitate Epo protein.
Hep3B cells obtained from the American Type Culture Collection (ATCC) are seeded at 2×10̂4 cells/well in Dulbecco's Modified Eagle Medium (DMEM)+10% FBS in 96-well plates. Cells are incubated at 37deg C./5% CO2/90% humidity (standard cell culture incubation conditions). After overnight adherence, medium is removed and replaced with DMEM with 2% serum containing test compound or DMSO negative control. Following 48 hours incubation, cell culture medium is collected and either frozen for later assay or assayed immediately by AlphaLISA to quantitate Epo protein.

Row | SMILES | pEC50
1 | O=C(O)CNC(=O)c1c(O)nc(-c2ccccc2)[nH]c1=O [Example 2, N-[(4-Hydroxy-6-oxo-2-phenyl-1,6-dihydro-5-pyrimidinyl)carbonyl]glycine] | < 4.00
2 | O=C(O)CNC(=O)c1c(O)nc(-c2cccc(C(=O)O)c2)[nH]c1=O [Example 18, 3-(5-{[(Carboxymethyl)amino]carbonyl}-4-hydroxy-6-oxo-1,6-dihydro-2-pyrimidinyl)benzoic acid] | < 4.00
3 | O=C(O)CNC(=O)c1c(O)nc(-c2cccc(C(=O)NCc3ccccc3)c2)n(Cc2ccccc2)c1=O [Example 20, N-{[4-Hydroxy-6-oxo-1-(phenylmethyl)-2-(3-{[(phenylmethyl)amino]carbonyl}phenyl)-1,6-dihydro-5-pyrimidinyl]carbonyl}glycine] | < 4.00
4 | O=C(O)CNC(=O)c1c(O)nc(-c2cccc(C(=O)O)c2)n(Cc2ccccc2)c1=O [Example 26, 3-[5-{[(Carboxymethyl)amino]carbonyl}-4-hydroxy-6-oxo-1-(phenylmethyl)-1,6-dihydro-2-pyrimidinyl]benzoic acid] | < 4.00
5 | CC(C)(C)c1ccc(Cn2c(-c3c(Cl)cccc3Cl)nc(O)c(C(=O)NCC(=O)O)c2=O)cc1 [Example 29, N-[(2-(2,6-Dichlorophenyl)-1-{[4-(1,1-dimethylethyl)phenyl]methyl}-4-hydroxy-6-oxo-1,6-dihydro-5-pyrimidinyl)carbonyl]glycine] | < 4.00
6 | O=C(O)CNC(=O)c1c(O)nc(-c2ccccc2Cl)n(Cc2ccccc2)c1=O [Example 30, N-{[2-(2-Chlorophenyl)-4-hydroxy-6-oxo-1-(phenylmethyl)-1,6-dihydro-5-pyrimidinyl]carbonyl}glycine] | < 4.00
7 | Cc1cccc(C)c1-c1nc(O)c(C(=O)NCC(=O)O)c(=O)n1Cc1ccc(C(C)(C)C)cc1 [Example 40, N-{[1-{[4-(1,1-Dimethylethyl)phenyl]methyl}-2-(2,6-dimethylphenyl)-4-hydroxy-6-oxo-1,6-dihydro-5-pyrimidinyl]carbonyl}glycine] | < 4.00
8 | CC(C)(C)c1ccc(Cn2c(-c3c(Br)cccc3Br)nc(O)c(C(=O)NCC(=O)O)c2=O)cc1 [Example 42, N-[(2-(2,6-Dibromolphenyl)-1-{[4-(1,1-dimethylethyl)phenyl]methyl}-4-hydroxy-6-oxo-1,6-dihydro-5-pyrimidinyl)carbonyl]glycine] | < 4.00

The remaining lines, values ahead:

Row | pEC50 | SMILES
9 | < 4.00 | CC(C)(C)c1ccc(Cn2c(-c3c(-c4ccccc4)cccc3-c3ccccc3)nc(O)c(C(=O)NCC(=O)O)c2=O)cc1 [Example 43, N-{[1-{[4-(1,1-Dimethylethyl)phenyl]methyl}-4-hydroxy-6-oxo-2-(1,1′:3′,1″-terphenyl-2′-yl)-1,6-dihydro-5-pyrimidinyl]carbonyl}glycine]
10 | < 4.00 | CC(C)(C)c1ccc(Cn2c(-c3ccccc3-c3ccccc3)nc(O)c(C(=O)NCC(=O)O)c2=O)cc1 [Example 46, N-[(2-(2-Biphenylyl)-1-{[4-(1,1-dimethylethyl)phenyl]methyl}-4-hydroxy-6-oxo-1,6-dihydro-5-pyrimidinyl)carbonyl]glycine]
11 | < 4.00 | CC(C)(C)c1ccc(Cn2c(-c3ccccc3-c3cc(F)cc(F)c3)nc(O)c(C(=O)NCC(=O)O)c2=O)cc1 [Example 47, N-[(2-(3′,5′-Difluoro-2-biphenylyl)-1-{[4-(1,1-dimethylethyl)phenyl]methyl}-4-hydroxy-6-oxo-1,6-dihydro-5-pyrimidinyl)carbonyl]glycine]
12 | < 4.00 | CC(C)CC(CC(C)C)c1nc(O)c(C(=O)NCC(=O)O)c(=O)n1Cc1ccc(C(C)(C)C)cc1 [Example 48]
13 | < 4.00 | CC(C)(C)c1ccc(Cn2c(-c3ccccc3-c3ccc(C(F)(F)F)cc3)nc(O)c(C(=O)NCC(=O)O)c2=O)cc1 [Example 49, N-({1-{[4-(1,1-Dimethylethyl)phenyl]methyl}-4-hydroxy-6-oxo-2-[4′-(trifluoromethyl)-2-biphenylyl]-1,6-dihydro-5-pyrimidinyl}carbonyl)glycine]
14 | < 4.00 | CC(C)(C)c1ccc(Cn2c(-c3c(Cl)cccc3-c3ccccc3)nc(O)c(C(=O)NCC(=O)O)c2=O)cc1 [Example 55, N-[(2-(3-Chloro-2-biphenylyl)-1-{[4-(1,1-dimethylethyl)phenyl]methyl}-4-hydroxy-6-oxo-1,6-dihydro-5-pyrimidinyl)carbonyl]glycine]
15 | < 4.00 | O=C(O)CNC(=O)c1c(O)nc(-c2c(Cl)cccc2-c2ccccc2)n(Cc2ccccc2Cl)c1=O [Example 56, N-({2-(3-Chloro-2-biphenylyl)-1-[(2-chlorophenyl)methyl]-4-hydroxy-6-oxo-1,6-dihydro-5-pyrimidinyl}carbonyl)glycine]
16 | < 4.00 | CC(C)(C)c1ccc(Cn2c(-c3c(Cl)cc(Cl)cc3Cl)nc(O)c(C(=O)NCC(=O)O)c2=O)cc1 [Example 57, N-{[1-{[4-(1,1-Dimethylethyl)phenyl]methyl}-4-hydroxy-6-oxo-2-(2,4,6-trichlorophenyl)-1,6-dihydro-5-pyrimidinyl]carbonyl}glycine]
